Drawing on US20110060009A1, “Hydroxamate-Based Inhibitors of Deacetylases” (NOVARTIS AG, priority 2009, published 2011), this text covers IC50 for 9 compounds.

Assay [1] has as its system HCT116. As to the kind of experiment: HCT116 IC50 (Table 2, no method described). Type of assay: cell-based. The conditions noted are these: Homo sapiens, HCT-116.
Assay [2] has as its target T1, HDAC-1 (Homo sapiens, UniProt Q13547).
T1 construct: made in house; host or cells: Sf9 or Sf21 insect cells (baculovirus, donor vector pFB-GSTX3)
As to the kind of experiment: HDAC Inhibition Assay (purified GST-HDAC protein). Type of assay: biochemical. An excerpt: The baculovirus donor vector pFB-GSTX3 is used to generate a recombinant baculovirus that expresses the HDAC polypeptide. Transfer vectors containing the HDAC coding region are transfected into the DH10Bac cell line (GIBCO) and plated on selective agar plates. Colonies without insertion of the fusion sequence into the viral genome (carried by the bacteria) are blue. Single, white colonies are picked and viral DNAs (bacmid) are isolated from the bacteria by standard plasmid purification procedures. Sf9 cells or Sf21 (American Type Culture Collection) cells are then transfected in […] flasks with the viral DNA using Cellfectin reagent.
Virus-containing media is collected from the transfected cell culture and used for infection to increase its titer. Virus-containing media obtained after two rounds of infection is used for large-scale protein expression. For large-scale protein expression 100 cm^2 round tissue culture plates are seeded with 5×10^7 cells/plate and infected with 1 mL of virus-containing media (at an approximately MOI of 5). After 3 days, the cells are scraped off the plate and centrifuged at 500 rpm for 5 minutes. Cell pellets from 10-20, 100 cm^2 plates, are re-suspended in 50 mL of ice-cold lysis buffer (25 mM tris-HCl, pH 7.5, 2 mM EDTA, 1% NP-40, 1 mM DTT, 1 mM P MSF). The cells are stirred on ice for 15 minutes and then centrifuged at 5,000 rpms for 20 minutes.
The centrifuged cell lysate is loaded onto a 2 mL glutathione-sepharose column (Pharmacia) and is washed thrice with 10 mL of 25 mM tris-HCl, pH 7.5, 2 mM EDTA, 1 mM DTT, 200 mM NaCl. The GST-tagged proteins are then eluted by 10 applications (1 mL each) of 25 mM tris-HCl, pH 7.5, 10 mM reduced-glutathione, 100 mM NaCl, 1 mM DTT, 10% glycerol and stored at −70° C.
HDAC assays with purified GST-HDAC protein are carried out in a final volume of 30 μL containing 15 ng of GST-HDAC protein, 20 mM tris-HCl, pH 7.5, 1 mM MnCl2, 10 mM MgCl2, 1 mM DTT, 3 μg/mL poly(Glu,Tyr) 4:1, 1% DMSO, 2.0 μM ATP (γ-[^33P]-ATP 0.1 μCi). The activity is assayed in the presence or absence of inhibitors. The assay is carried out in 96-well plates at ambient temperature for 15 minutes under conditions described below and terminated by the addition of 20 μL of 125 mM EDTA. Subsequently, 40 μL of the reaction mixture are transferred onto EMMOBILON-PVDF membrane (Millipore) previously soaked for 5 minutes with methanol, rinsed with water, then soaked for 5 minutes with 0.5% H3PO4 and mounted on vacuum manifold with disconnected vacuum source. After spotting all samples, a vacuum is connected and each well-rinsed with 200 μL 0.5% H3PO4. Membranes are removed and washed four times on a shaker with 1.0% H3PO4, once with ethanol. Membranes are counted after drying at ambient temperature, mounting in Packard TopCount 96-well frame, and addition of 10 μL/well of MICROSCINT™ (Packard). IC50 values are calculated by linear regression analysis of the percentage inhibition of each compound in duplicate, at 4 concentrations (usually 0.01, 0.1, 1 and 10 μM).
• Input: 3×4 μL stopped assay on IMMOBILON membrane, not washed • Background (3 wells): assay with H2O instead of enzyme • Positive control (4 wells): 3% DMSO instead of compound • Bath control (1 well): no reaction mix
IC50 values are calculated by logarithmic regression analysis of the percentage inhibition of each compound at 4 concentrations (usually 3- or 10-fold dilution series starting at 10 μM). In each experiment, the actual inhibition by reference compound is used for normalization of IC50 values to the basis of an average value of the reference inhibitor:
Normalized IC50=measured IC50 average ref. IC50/measured ref. IC50

T1 sequence (Q13547 whole entry, species assumed): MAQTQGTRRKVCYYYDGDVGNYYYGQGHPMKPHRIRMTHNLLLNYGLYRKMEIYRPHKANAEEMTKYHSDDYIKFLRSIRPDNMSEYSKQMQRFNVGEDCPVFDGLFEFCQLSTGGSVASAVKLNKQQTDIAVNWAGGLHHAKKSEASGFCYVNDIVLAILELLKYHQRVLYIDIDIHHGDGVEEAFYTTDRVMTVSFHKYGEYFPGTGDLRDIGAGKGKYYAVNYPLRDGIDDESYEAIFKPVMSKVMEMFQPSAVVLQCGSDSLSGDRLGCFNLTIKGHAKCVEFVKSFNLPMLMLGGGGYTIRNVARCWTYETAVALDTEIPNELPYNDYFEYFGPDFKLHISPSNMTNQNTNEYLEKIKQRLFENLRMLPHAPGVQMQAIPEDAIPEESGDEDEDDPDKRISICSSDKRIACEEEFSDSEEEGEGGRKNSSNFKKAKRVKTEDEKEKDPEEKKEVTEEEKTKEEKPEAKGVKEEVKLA

Consider `O=C(/C=C/c1ccc(CN2C[C@@H](O)C[C@@H]2Cc2c[nH]c3ccccc23)cc1)NO` [Cpd 22, (E)-N-Hydroxy-3-{4-[(2S,4S)-4-hydroxy-2-(1H-indol-3-ylmethyl)-pyrrolidin-1-ylmethyl]-phenyl}-acrylamide], for which the figures for the IC50 in assay [1] and in assay [2] were 4 nM and 0.45 nM, respectively.
With `O=C(/C=C/c1ccc(CN2C[C@H](O)C[C@@H]2Cc2c[nH]c3ccccc23)cc1)NO` [Cpd 23, (E)-N-Hydroxy-3-{4-[(2S,4R)-4-hydroxy-2-(1H-indol-3-ylmethyl)-pyrrolidin-1-ylmethyl]-phenyl}-acrylamide], the values for the IC50 in assay [1] and in assay [2] were 8 nM and 1.7 nM, respectively.
For the compound `CO[C@@H]1C[C@H](Cc2c(C)[nH]c3ccccc23)N(Cc2ccc(/C=C/C(=O)NO)cc2)C1` [Cpd 24, (E)-N-Hydroxy-3-{4-[(2S,4R)-4-methoxy-2-(2-methyl-1H-indol-3-ylmethyl)-pyrrolidin-1-ylmethyl]-phenyl}-acrylamide], the concentration for half-maximal inhibition (IC50) in assay [1] was 0.5 nM; in assay [2], 1.2 nM.
In the same order, the values of `CO[C@H]1C[C@H](Cc2c(C)[nH]c3ccccc23)N(Cc2ccc(/C=C/C(=O)NO)cc2)C1` [Cpd 25, (E)-N-Hydroxy-3-{4-[(2S,4S)-4-methoxy-2-(2-methyl-1H-indol-3-ylmethyl)-pyrrolidin-1-ylmethyl]-phenyl}-acrylamide] are 0.4 nM and 1.2 nM.
`Cc1nn(C)c(C)c1C[C@H]1C[C@H](O)CN1Cc1ccc(/C=C/C(=O)NO)cc1` [Cpd 31, (E)-N-Hydroxy-3-{4-[(2S,4S)-4-hydroxy-2-(1,3,5-trimethyl-1H-pyrazol-4-ylmethyl)-pyrrolidin-1-ylmethyl]-phenyl}-acrylamide]: the IC50 was found to be 16 nM in assay [1] and 2 nM in assay [2].
Take `O=C(/C=C/c1ccc(CN2CCC[C@@H]2Cn2cccn2)cc1)NO` [Cpd 49, (E)-N-Hydroxy-3-[4-((R)-2-pyrazol-1-ylmethyl-pyrrolidin-1-ylmethyl)-phenyl]-acrylamide]: the IC50 stood at 26 nM in assay [1] and 15 nM in assay [2].
In the same order, the values of `Cc1cc(C)n(C[C@H]2CCCN2Cc2ccc(/C=C/C(=O)NO)cc2)n1` [Cpd 50, (E)-3-{4-[(R)-2-(3,5-Dimethyl-pyrazol-1-ylmethyl)-pyrrolidin-1-ylmethyl]-phenyl}-N-hydroxy-acrylamide] are 4 nM and 3 nM.
As for `O=C(/C=C/c1ccc(CN2CCC[C@@H]2Cn2nc(C(F)(F)F)cc2C(F)(F)F)cc1)NO` [Cpd 51, (E)-3-{4-[(R)-2-(3,5-Bis-trifluoromethyl-pyrazol-1-ylmethyl)-pyrrolidin-1-ylmethyl]-phenyl}-N-hydroxy-acrylamide], the IC50 came to 31 nM in assay [1] and 39 nM in assay [2].
In the same order, the values of `O=C(/C=C/c1ccc(CN2C[C@H](O)C[C@@H]2Cn2nc(C(F)(F)F)cc2C(F)(F)F)cc1)NO` [Cpd 52, (E)-3-{4-[(2R,4R)-2-(3,5-Bis-trifluoromethyl-pyrazol-1-ylmethyl)-4-hydroxy-pyrrolidin-1-ylmethyl]-phenyl}-N-hydroxy-acrylamide] are 52 nM and 37 nM.

The IC50 is the concentration that inhibits the measured activity by half. A low value points to greater potency in that assay.
